Data on 17 molecules can be found in ChEMBL document CHEMBL1955752, “Synthesis and evaluation of fluorobenzoylated di- and tripeptides as inhibitors of cyclooxygenase-2 (COX-2)” (Bioorg Med Chem, 2012).

In experiment [1] the target is T1, Prostaglandin G/H synthase 1 (Ovis aries) (UniProt P05979).
T1 sequence (whole entry): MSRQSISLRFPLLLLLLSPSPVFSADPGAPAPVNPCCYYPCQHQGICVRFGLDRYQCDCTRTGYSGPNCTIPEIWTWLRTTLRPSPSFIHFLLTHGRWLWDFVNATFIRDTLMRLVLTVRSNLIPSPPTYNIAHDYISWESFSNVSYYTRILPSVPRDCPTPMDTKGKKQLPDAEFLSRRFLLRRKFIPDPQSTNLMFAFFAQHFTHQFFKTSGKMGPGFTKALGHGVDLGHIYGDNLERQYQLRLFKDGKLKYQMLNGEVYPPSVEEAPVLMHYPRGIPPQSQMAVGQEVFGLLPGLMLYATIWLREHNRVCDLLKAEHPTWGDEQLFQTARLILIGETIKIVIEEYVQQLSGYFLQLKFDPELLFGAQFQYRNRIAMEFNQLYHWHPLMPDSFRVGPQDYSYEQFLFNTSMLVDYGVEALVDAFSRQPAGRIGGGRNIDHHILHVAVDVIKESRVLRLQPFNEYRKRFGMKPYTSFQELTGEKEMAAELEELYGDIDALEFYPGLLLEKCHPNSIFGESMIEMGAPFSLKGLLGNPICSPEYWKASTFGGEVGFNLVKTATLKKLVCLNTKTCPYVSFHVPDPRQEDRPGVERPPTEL
Put plainly: Inhibition of ovine COX1 at 1 nM to 1 mM by fluorescence assay.

Experiment [2] deals with T2, Prostaglandin G/H synthase 2 (Homo sapiens, UniProt P35354).
T2 sequence (P35354 whole entry): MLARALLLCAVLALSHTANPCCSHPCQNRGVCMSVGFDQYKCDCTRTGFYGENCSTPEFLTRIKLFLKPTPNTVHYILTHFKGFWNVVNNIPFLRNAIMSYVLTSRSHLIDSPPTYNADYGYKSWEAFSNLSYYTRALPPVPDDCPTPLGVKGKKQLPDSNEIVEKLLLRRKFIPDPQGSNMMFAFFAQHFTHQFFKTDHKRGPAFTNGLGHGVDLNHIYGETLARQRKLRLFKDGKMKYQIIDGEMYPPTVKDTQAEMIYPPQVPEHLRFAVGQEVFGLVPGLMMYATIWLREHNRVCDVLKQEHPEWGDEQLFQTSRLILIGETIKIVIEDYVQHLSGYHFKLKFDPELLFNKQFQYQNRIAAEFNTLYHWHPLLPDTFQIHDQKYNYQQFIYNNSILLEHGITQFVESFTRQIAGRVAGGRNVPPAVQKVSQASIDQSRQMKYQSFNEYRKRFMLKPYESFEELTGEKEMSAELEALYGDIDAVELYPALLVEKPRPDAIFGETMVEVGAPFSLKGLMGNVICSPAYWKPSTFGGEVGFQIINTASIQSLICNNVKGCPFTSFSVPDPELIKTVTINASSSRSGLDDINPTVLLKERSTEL
Briefly: Inhibition of human recombinant COX2 by fluorescence assay.

Experiment [3] deals with T3, Prostaglandin G/H synthase 1 (Ovis aries, UniProt P05979).
T3 sequence (P05979 whole entry): T1 sequence (whole entry)
Briefly: Inhibition of ovine COX1 by fluorescence assay.

Experiment [4] addresses T4, Prostaglandin G/H synthase 2 (Homo sapiens) (UniProt P35354).
T4 sequence (whole entry): T2 sequence (P35354 whole entry)
Put plainly: Inhibition of human recombinant COX2 at 1 nM to 1 mM by fluorescence assay.

In experiment [5] the target is T2, Prostaglandin G/H synthase 2. Put plainly: Binding affinity to COX2 by surface plasmon resonance spectroscopy.
For experiment [6] the target is unchanged. Put plainly: Inhibition of COX2 by ELISA. Background: An ELISA detects its analyte on a solid surface through an enzyme-linked reagent.

Molecules are shown by their SMILES. Activity calls are given as the source filed them. The rule behind the calls is not given here. Residues, ends and D or L forms follow the SMILES beside them. A value given as a limit tells only on which side of the number the result lay.

In general, IC50 refers to the concentration that gives 50% inhibition. On to `N[C@@H](Cc1c[nH]c2ccccc12)C(=O)N[C@@H](Cc1ccc(O)cc1)C(=O)N[C@@H](CC(=O)O)C(=O)O` (H-Trp-Tyr-Asp-OH), for which the inhibition entry in experiment [1] is “inactive”. Also, the IC50 in experiment [2] amounted to 700 µM.

`CSCC[C@H](NC(=O)[C@H](Cc1c[nH]c2ccccc12)NC(=O)c1ccc(F)cc1)C(=O)N[C@@H](CC(=O)O)C(=O)O`: the inhibition result in experiment [1] was “inactive”. Also, in experiment [2], the IC50 is 450 µM.

On to `O=C(N[C@@H](Cc1c[nH]c2ccccc12)C(=O)N[C@@H](CS)C(=O)N[C@@H](CO)C(=O)O)c1ccc(F)cc1`, for which the IC50 worked out at 140 µM in experiment [3] and 85 µM in experiment [2].

In the case of `O=C(N[C@@H](CS)C(=O)N[C@@H](CO)C(=O)O)c1ccc(F)cc1`, the IC50 in experiment [3] stood at 5 µM; in experiment [2] it was 15 µM.

Regarding `CSCC[C@H](NC(=O)[C@H](Cc1ccc(O)cc1)NC(=O)c1ccc(F)cc1)C(=O)N[C@@H](CCC(=O)O)C(=O)O`, the inhibition result in experiment [1] is “inactive”. Moreover, the IC50 in experiment [2] was 500 µM.

Consider `CSCC[C@H](NC(=O)[C@H](Cc1ccc(O)cc1)NC(=O)c1ccc(F)cc1)C(=O)N[C@@H](CC(=O)O)C(=O)O`, for which the inhibition result in experiment [1] was “inactive”. Moreover, in experiment [2], the IC50 is more than 1000 µM.

As for `CSCC[C@H](NC(=O)[C@H](Cc1ccccc1)NC(=O)c1ccc(F)cc1)C(=O)N[C@@H](CC(=O)O)C(=O)O`, in experiment [1], the inhibition result was “inactive”. Also, the IC50 in experiment [2] was found to be 450 µM.

As to `O=C(N[C@@H](Cc1c[nH]c2ccccc12)C(=O)N[C@@H](CO)C(=O)O)c1ccc(F)cc1`, the inhibition result in experiment [1] was “inactive”. The IC50 in experiment [2] was 200 µM.

With `O=C(O)C[C@H](NC(=O)[C@H](Cc1ccc(O)cc1)NC(=O)c1ccc(F)cc1)C(=O)O`, in experiment [1], the inhibition result is “inactive”. In experiment [2], the half-inhibitory concentration (IC50) was determined as 110 µM.

Regarding `O=C(O)C[C@H](NC(=O)[C@H](CS)NC(=O)c1ccc(F)cc1)C(=O)O`, the IC50 in experiment [3] was found to be 15 µM; in experiment [2] it was 14 µM.

With `CSCC[C@H](NC(=O)[C@H](Cc1c[nH]c2ccccc12)NC(=O)c1ccc(F)cc1)C(=O)N[C@@H](CCC(=O)O)C(=O)O`, the inhibition result in experiment [1] was “inactive”. Further, the IC50 in experiment [2] came out at 350 µM.

For the molecule `O=C(O)C[C@H](NC(=O)[C@H](Cc1ccc(O)cc1)NC(=O)[C@H](Cc1c[nH]c2ccccc12)NC(=O)c1ccc(F)cc1)C(=O)O`, the inhibition result in experiment [1] and in experiment [4] was “inactive” in each case.

For `O=C(N[C@@H](Cc1ccc(O)cc1)C(=O)N[C@@H](Cc1c[nH]c2ccccc12)C(=O)N[C@@H](CO)C(=O)O)c1ccc(F)cc1`, in experiment [1], the inhibition entry was “inactive”. Further, the concentration for half-maximal inhibition (IC50) in experiment [2] is 180 µM.

As for `O=C(N[C@@H](Cc1ccccc1)C(=O)N[C@@H](CS)C(=O)N[C@@H](CO)C(=O)O)c1ccc(F)cc1`, the values for the IC50 in experiment [3] and in experiment [2] were 27 µM and 13 µM, respectively.

For `O=C(N[C@@H](Cc1ccc(O)cc1)C(=O)N[C@@H](CO)C(=O)O)c1ccc(F)cc1`, the inhibition entry in experiment [1] was “inactive”. Moreover, the IC50 in experiment [2] stood at 140 µM.

With `CSCC[C@H](NC(=O)[C@H](Cc1ccccc1)NC(=O)c1ccc(F)cc1)C(=O)N[C@@H](CCC(=O)O)C(=O)O`, in experiment [1], the inhibition result is “inactive”. In addition, the 50% inhibitory concentration (IC50) in experiment [2] was more than 1000 µM.

For orientation: Kd means a measure of binding affinity in units of concentration. A low value points to a tighter complex. `N[C@@H](Cc1c[nH]c2ccccc12)C(=O)N[C@@H](CS)C(=O)N[C@@H](CO)C(=O)O` (H-Trp-Cys-Ser-OH): the IC50 came to 6 µM in experiment [3], 21 µM in experiment [2] and 0.015 µM in experiment [6]. The same molecule came in with a Kd in experiment [5] of 0.00019 µM.
